Assays:
[1] = test system: human dermal fibroblasts (HDF); assay: LDH activity in cell culture solution of human fibroblasts; type: cell-based; conditions: young and replicative senescent fibroblasts; 4 days
Experimental: Cytotoxicity against young and senescent cells was investigated with a lactate dehydrogenase (LDH) activity kit (Dojindo Molecular Technologies Inc.).
Young cells (1×10^3 cells/100 μl/well) or senescent cells (2×10^3 cells/100 μl/well) were dispensed into a 96-well plate, and then cultured overnight in a 37° C., 5% CO2 incubator. Zotarolimus and ABT263 were treated at each concentration, and then incubated for 4 days in a 37° C., 5% CO2 incubator.
After transferring the cell culture solution to a 1.5 ml tube, it was centrifuged at 4° C. and 12,000 rpm. 100 μl of the supernatant was dispensed into a 96-well plate, and 100 μl of the LDH measurement solution was added to each well, followed by reaction in a CO2 incubator for 30 minutes.
50 μl of the LDH reaction stop solution was added, and absorbance was measured at 490 nm using a microplate reader. The level of LDH activity was expressed as a relative value based on the absorbance of the control group treated with only DMSO.
From the above results, in order to confirm whether the decrease in cell growth caused by zotarolimus was due to cell death or simply because the growth stopped, LDH activity was investigated in the cell culture solution.

[2] = test system: human tubular epithelial cell (HK2); assay: SAβG activity staining in premature senescent HK2 cells; type: cell-based; conditions: premature senescent HK2 cells by doxorubicin; 100 nM, 4 days
Experimental: Each cell was treated in a serum-free culture solution containing 0.5 μM doxorubicin for 4 hours. After washing the cells with a serum-free culture solution, the cells were cultured for 4 days in a culture solution containing 10% FBS, and then cellular aging was confirmed by staining with senescence-associated beta galactosidase (SAβG). After each sample was dissolved in DMSO, young cells, replicative senescent cells, and premature senescent cells treated with doxorubicin were treated with 100 nM zotarolimus, 100 nM rapamycin, 100 nM ABT263, respectively. After incubation for 4 days in a 37° C., 5% CO2 incubator, the degree of cell growth was confirmed by CCK-8 analysis, the degree of cellular aging was confirmed by senescence-related beta-galactosidase (SAβG) staining, The cells were washed with 1× phosphate buffer solution, and fixed with a phosphate buffer solution containing 3.7% (v/v) paraformaldehyde. After adding 1 mg/ml 5-bromo-4-chloro-3-indolyl-6-D-galactoside, 40 mM citric acid-sodium phosphate (pH 6.0), 5 mM potassium ferricyanide, 5 mM potassium ferrocyanide, 150 mM NaCl, and 2 mM MgCl2 solution, it was reacted at 37° C. for 18 hours. It was stained with eosin as a control stain. Cells stained blue in the cytoplasm were identified using an optical microscope. […]

[3] = test system: pulmonary fibrosis induced by bleomycin; assay: Lung fibrosis induced by bleomycin in mice; type: in vivo, C57BL/6J mice
Experimental: Animal experiments were conducted with the approval of the Animal Experimental Ethics Committee, Yeungnam University College of Medicine (YUMC-AEC2018-025). After anesthetizing by injecting 2.5% avertin (Avertin; 0.025 ml/g) into the abdominal cavity of 10-week-old C57BL/6J male mice, 2 mU/g of bleomycin was instilled into the bronchi and injected into the lungs.
From 5 days after bleomycin administration, 2.5 μl of 10 mM zotarolimus was diluted in 100 μl phosphate buffer solution at intervals of 3 days and injected intraperitoneally 6 times (Zota group).
Three mice were used for each group, and lungs were excised by sacrifice 22 days after bleomycin injection and fixed in 10% formalin solution or stored frozen in liquid nitrogen.
(§1) The tissue fixed in 10% formalin solution was embedded with paraffin and cut into 4 μm to prepare a tissue sample. After removing paraffin from the tissue sample, hematoxylin-eosin staining, trichrome staining, and PAS staining were performed.
(§2) The degree of fibrosis was measured by analyzing the degree of collagen staining using the i-Solution™ software program (IMT Inc., Canada) after trichrome staining and the degree of cell senescence in tissue samples was investigated by staining lipofuscin with Sudan black B (Viegas M S, et al., European journal of histochemistry: EJH. 2007). The degree of peritoneal fibrosis was confirmed by measuring the submesothelial thickness of the peritoneal mesothelial cell layer using the NIH Image J program.

[4] = test system: peritoneal fibrosis induced by CHG; assay: Peritoneal fibrosis induced by chlorhexidine gluconate (CHG) in mice; type: in vivo, C57BL/6J mice; conditions: i.p. at 2-day intervals from 9th day; vs DMSO group
Experimental: Animal experiments were conducted with the approval of the Animal Experimental Ethics Committee of Yeungnam University College of Medicine (YUMC-AEC2018-033). Peritoneal fibrosis mice experiments were performed using a model of peritoneal fibrosis induced by chlorhexidine gluconate (CHG) (Yoshio Y et al., Kidney international. 2004).
From the 9th day, 2.5 μl of 10 mM zotarolimus (Zota group) or 2.5 μl of DMSO (DMSO group) was diluted in 100 μl phosphate buffer solution and intraperitoneally injected at intervals of 2 days.
As a negative control (NT group), 100 μl of a 15% ethanol phosphate buffer solution was injected intraperitoneally instead of a 0.1% CHG solution. On the 20th day, the mice were sacrificed, the peritoneal tissue was excised, and the tissue was fixed in 4% paraformaldehyde solution.
as §1
as §2, with “The degree of peritoneal fibrosis was confirmed by measuring the submesothelial thickness of the peritoneal mesothelial cell layer using the NIH Image J program.” left out

[5] = i.p. 6 times at 3-day intervals from day 5, vs PBS group

## CO[C@H]1C[C@@H]2CC[C@@H](C)[C@@](O)(O2)C(=O)C(=O)N2CCCC[C@H]2C(=O)O[C@H]([C@H](C)C[C@@H]2CC[C@H](n3cnnn3)[C@H](OC)C2)CC(=O)[C@H](C)/C=C(\C)[C@@H](O)[C@@H](OC)C(=O)[C@H](C)C[C@H](C)/C=C/C=C/C=C/1C [zotarolimus]
[1]
  LDH activity in the cell culture medium: no difference in LDH activity
[2]
  SAβG staining: decreased
[3]; before induction vs 20th day, vs NT group
  weight gain: significantly decreased
[3]; [5]
  degree of lung fibrosis (trichrome staining): statistically significantly reduced
  degree of lung tissue damage (hematoxylin-eosin staining): statistically significantly reduced
[3]; vs PBS group
  weight: further increased compared to that of the PBS group
[4]
  degree of fibrosis (peritoneal): decreased
  thickness of the peritoneal mesothelial cell layer: significantly reduced

From US20220023271A1, “COMPOSITION FOR PREVENTING OR TREATING CELLULAR SENESCENCE-RELATED DISEASES COMPRISING ZOTAROLIMUS AS ACTIVE INGREDIENT” (RESEARCH COOPERATION FOUNDATION OF YEUNGNAM UNIVERSITY, priority 2018, published 2022)
